Experimental data published in US7504420B2, “Compounds which inhibit beta-secretase activity and methods of use” (CoMentis, Inc., priority 2005, dated 2009).

Columns and labels:
memapsin 2 = memapsin 2 (Homo sapiens, UniProt P56817); test: Inhibition of memapsin 2 catalytic activity (Ki); type: biochemical; conditions: memapsin 2, pH 4, 37° C.; read-out: M2K
Outline: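 Run at 37 °C and pH 4: compound and enzyme pre-incubated 20 min before FS-2 fluorogenic substrate started hydrolysis,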

cathepsin D = cathepsin D (Homo sapiens, UniProt P07339); test: Inhibition of cathepsin D catalytic activity (Ki); type: biochemical; conditions: pH 4.0, 37° C., read-out: CDK
Chain of cathepsin D (P07339 65-412, species assumed): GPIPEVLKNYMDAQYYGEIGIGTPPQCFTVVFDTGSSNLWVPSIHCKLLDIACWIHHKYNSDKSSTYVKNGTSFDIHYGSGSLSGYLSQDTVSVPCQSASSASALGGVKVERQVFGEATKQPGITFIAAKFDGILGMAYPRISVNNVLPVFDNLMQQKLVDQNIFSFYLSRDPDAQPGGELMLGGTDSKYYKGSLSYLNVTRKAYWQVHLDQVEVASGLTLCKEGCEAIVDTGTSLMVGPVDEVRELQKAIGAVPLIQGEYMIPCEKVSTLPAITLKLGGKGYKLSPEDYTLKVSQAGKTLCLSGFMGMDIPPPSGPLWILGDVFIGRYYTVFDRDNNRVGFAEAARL
Description: A substrate peptide NH3-ELDLAVEFWHDR-CO2 (SEQ ID NO.:1) (used for inhibition assay of memapsin 2, memapsin 1, and cathepsin D) was dissolved at 2 mg/ml in DMSO and diluted 1:100 in 0.1 M sodium acetate, pH 4.0 just prior to assay. Inhibitor dissolved in DMSO was diluted into 0.1 M sodium acetate, pH 4.0 (1:100 dilution). A […] aliquot of the inhibitor solution in pH 4 buffer was combined with […] of 0.1 M sodium acetate containing 100-200 nM of memapsin 1, memapsin 2, or cathepsin D. Following a pre-incubation at 37° C., the proteolytic assay was initated by addition of […] of the substrate diluted into pH 4 buffer, and incubation continued at 37° C. Aliquots were removed at time intervals, and combined with an equal volume of MALDI-TOF matrix (α-hydroxycinnamic acid in acetone, 20 mg/ml) and immediately spotted in duplicate onto a stainless-steel MALDI sample plate. MALDI-TOF mass spectrometry was performed on a PE Biosystems Voyager DE instrument at the Molecular Biology Resource Center on campus. The instrument was operated at 25,000 accelerating volts in positive mode with a 150 ns delay. Ions with a mass-to-charge ratio (m/z) were detected in the range of 650-2000 atomic mass units. Data were analyzed by the Voyager Data Explorer module to obtain ion intensity data for mass species of substrates and corresponding products in a given mixture. Relative product formation was calculated as the ratio of signal intensity of the product to the sum of signal intensities of both product and the corresponding substrate. Relative product formed per unit time was obtained from non-linear regression analysis of the data representing the initial 15% formation of product using the model: 1−e^−kT, where k was the relative hydrolytic rate constant and T was time in seconds. Alternatively, relative hydrolytic rates were determined using a fluorogenic cleavage assay (Ermolieff, J. et al., Biochemistry, 39: 12450-12456 (2000)). Initial rates from either method were expressed relative to uninhibited controls and the inhibition constant Ki was determined by a non-linear fit to a tight-binding model of competitive inhibition (Bieth, J., Bayer-Symposium V: Proteinase Inhibitors, pp 463-469, Spinger-Varlag, Berlin (1994)). Results are shown in Table 1 above (M2K, CDK, and M1K columns represent, respectively, the K1 values obtained for memapsin 2, cathepsin D and memapsin 1).

[1] = tested on: Aβ production in Chinese hamster ovary cells that over-express human APP695 with the London and Swedish mutations; test: Cellular Aβ IC50 determination (Aβ40 sandwich ELISA); conditions: Cricetulus griseus, CHO, 24 h, read-out: Cell, Aβ40, CHO cells over-expressing human APP695 (London and Swedish mutations), 24 h

Chain of memapsin 2 (P56817 46-501): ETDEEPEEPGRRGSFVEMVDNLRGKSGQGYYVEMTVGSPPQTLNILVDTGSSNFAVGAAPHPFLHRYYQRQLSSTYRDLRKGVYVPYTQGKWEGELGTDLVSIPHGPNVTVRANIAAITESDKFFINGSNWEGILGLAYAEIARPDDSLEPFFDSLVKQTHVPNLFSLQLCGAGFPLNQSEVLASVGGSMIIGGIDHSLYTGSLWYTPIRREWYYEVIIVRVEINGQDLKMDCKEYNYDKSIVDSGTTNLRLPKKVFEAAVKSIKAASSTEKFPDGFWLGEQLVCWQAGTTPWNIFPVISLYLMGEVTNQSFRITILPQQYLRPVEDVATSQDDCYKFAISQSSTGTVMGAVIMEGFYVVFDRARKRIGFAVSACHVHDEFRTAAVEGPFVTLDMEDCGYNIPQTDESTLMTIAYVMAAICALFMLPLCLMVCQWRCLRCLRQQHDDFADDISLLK

Ki (memapsin 2) [nM]	Ki (cathepsin D) [nM]	IC50 [1] [nM]	SMILES
< 300	< 300	< 1000	CC(C)Cc1cccc(CNCC(O)C(Cc2ccccc2)NC(=O)c2cc(C(=O)NC(C)c3ccccc3)cc(N(C)S(C)(=O)=O)c2)c1 (stereo not drawn) [N1-(3-hydroxy-4-(3-isobutylbenzylamino)-1-phenylbutan-2-yl)-5-(N-methylmethylsulfonamido)-N3-(1-phenylethyl)isophthalamide]
< 300	< 300	< 1000	CC(C)c1cccc(CNCC(O)C(Cc2ccccc2)NC(=O)c2cc(C(=O)NC(C)c3ccccc3)cc(N(C)S(C)(=O)=O)c2)c1 (stereo not drawn) [N1-(3-hydroxy-4-(3-isopropylbenzylamino)-1-phenylbutan-2-yl)-5-(N-methylmethylsulfonamido)-N3-(1-phenylethyl)isophthalamide]
< 300	> 501	< 1000	COc1cccc(CNCC(O)C(Cc2ccccc2)NC(=O)c2cc(C(=O)NC(C)c3nc(CO)co3)cc(N(C)S(C)(=O)=O)c2)c1 (stereo not drawn) [N1-(3-hydroxy-4-(3-methoxybenzylamino)-1-phenylbutan-2-yl)-N3-(1-(4-(hydroxymethyl)oxazol-2-yl)ethyl)-5-(N-methylmethylsulfonamido)isophthalamide]
> 501	> 501	< 1000	COc1cccc(CNCC(O)C(Cc2ccccc2)NC(=O)c2cc(C(=O)NCc3cncc(O)c3)cc(N(C)S(C)(=O)=O)c2)c1 (stereo not drawn) [N1-(3-hydroxy-4-(3-methoxybenzylamino)-1-phenylbutan-2-yl)-N3-((5-hydroxypyridin-3-yl)methyl)-5-(N-methylmethylsulfonamido)isophthalamide]
< 300	< 300	< 1000	COc1cccc(CNCC(O)C(Cc2ccccc2)NC(=O)c2cc(C(=O)N(C)Cc3nc(C)cs3)cc(N(C)S(C)(=O)=O)c2)c1 (stereo not drawn) [N1-(3-hydroxy-4-(3-methoxybenzylamino)-1-phenylbutan-2-yl)-N3-methyl-5-(N-methylmethylsulfonamido)-N3-((4-methylthiazol-2-yl)methyl)isophthalamide]
< 300	< 300	< 1000	CC(C)Oc1cncc(CNCC(O)C(Cc2ccccc2)NC(=O)c2cc(C(=O)NC(C)c3ccccc3)cc(N(C)S(C)(=O)=O)c2)c1 (stereo not drawn) [N1-(3-hydroxy-4-((5-isopropoxypyridin-3-yl)methylamino)-1-phenylbutan-2-yl)-5-(N-methylmethylsulfonamido)-N3-(1-phenylethyl)isophthalamide]
< 300	< 300	< 1000	CC(C)c1cncc(CNCC(O)C(Cc2ccccc2)NC(=O)c2cc(C(=O)NC(C)c3ccccc3)cc(N(C)S(C)(=O)=O)c2)c1 (stereo not drawn) [N1-(3-hydroxy-4-((5-isopropylpyridin-3-yl)methylamino)-1-phenylbutan-2-yl)-5-(N-methylmethylsulfonamido)-N3-(1-phenylethyl)isophthalamide]
< 300	< 300	< 1000	Cc1cc(CNCC(O)C(Cc2ccccc2)NC(=O)c2cc(C(=O)NC(C)c3ccccc3)cc(N(C)S(C)(=O)=O)c2)no1 (stereo not drawn) [N1-(3-hydroxy-4-((5-methylisoxazol-3-yl)methylamino)-1-phenylbutan-2-yl)-5-(N-methylmethylsulfonamido)-N3-(1-phenylethyl)isophthalamide]

Continued, molecule first:

SMILES	Ki (memapsin 2) [nM]	Ki (cathepsin D) [nM]	IC50 [1] [nM]
Cc1csc(CN(C)C(=O)c2cccc(C(=O)NC(Cc3ccccc3)C(O)CNCc3cccc(OC(C)C)c3)c2)n1 (stereo not drawn) [N1-(3-hydroxy-4-(3-isopropoxybenzylamino)-1-phenylbutan-2-yl)-N3-methyl-N3-((4-methylthiazol-2-yl)methyl)isophthalamide]	< 300	< 300	< 1000
Cc1csc(CN(C)C(=O)c2cccc(C(=O)NC(Cc3ccccc3)C(O)CNCc3cccc(C(C)C)c3)c2)n1 (stereo not drawn) [N1-(3-hydroxy-4-(3-isopropylbenzylamino)-1-phenylbutan-2-yl)-N3-methyl-N3-((4-methylthiazol-2-yl)methyl)isophthalamide]	< 300	< 300	< 1000
COc1cccc(CNCC(O)C(Cc2ccccc2)NC(=O)c2cc(C(=O)NC(C)c3ccccc3)c(C)cc2C)c1 (stereo not drawn) [N1-(3-hydroxy-4-(3-methoxybenzylamino)-1-phenylbutan-2-yl)-4,6-dimethyl-N3-(1-phenylethyl)isophthalamide]	301 to 500	< 300	< 1000
COc1cccc(CNCC(O)C(Cc2ccccc2)NC(=O)c2cccc(C(=O)N(C)C(C)c3nc(C)cs3)c2)c1 (stereo not drawn) [N1-(3-hydroxy-4-(3-methoxybenzylamino)-1-phenylbutan-2-yl)-N3-methyl-N3-(1-(4-methylthiazol-2-yl)ethyl)isophthalamide]	< 300	< 300	< 1000
COc1cccc(CCNCC(O)C(Cc2ccccc2)NC(=O)c2cccc(C(=O)N(C)Cc3nc(C)cs3)c2)c1 (stereo not drawn) [N1-(3-hydroxy-4-(3-methoxyphenethylamino)-1-phenylbutan-2-yl)-N3-methyl-N3-((4-methylthiazol-2-yl)methyl)isophthalamide]	> 501	301 to 500	> 5000
COc1ccc(CCNCC(O)C(Cc2ccccc2)NC(=O)c2cc(C(=O)NC(C)c3ccccc3)cc(N(C)S(C)(=O)=O)c2)cc1 (stereo not drawn) [N1-(3-hydroxy-4-(4-methoxyphenethylamino)-1-phenylbutan-2-yl)-5-(N-methylmethylsulfonamido)-N3-(1-phenylethyl)isophthalamide]	< 300	< 300	< 1000
CC(NC(=O)c1cc(C(=O)NC(Cc2ccccc2)C(O)CNCC2CCCN(C)C2)cc(N(C)S(C)(=O)=O)c1)c1ccccc1 (stereo not drawn) [N1-(3-hydroxy-4-((1-methylpiperidin-3-yl)methylamino)-1-phenylbutan-2-yl)-5-(N-methylmethylsulfonamido)-N3-(1-phenylethyl)isophthalamide]	> 501	> 501	> 5000
Cc1cc(CNCC(O)C(Cc2ccccc2)NC(=O)c2cc(C(=O)NC(C)c3ccccc3)cc(N(C)S(C)(=O)=O)c2)on1 (stereo not drawn) [N1-(3-hydroxy-4-((3-methylisoxazol-5-yl)methylamino)-1-phenylbutan-2-yl)-5-(N-methylmethylsulfonamido)-N3-(1-phenylethyl)isophthalamide]	< 300	< 300	< 1000
Cc1cc(CNCC(O)C(Cc2ccccc2)NC(=O)c2cccc(C(=O)N(C)Cc3nc(C)cs3)c2)on1 (stereo not drawn) [N1-(3-hydroxy-4-((3-methylisoxazol-5-yl)methylamino)-1-phenylbutan-2-yl)-N3-methyl-N3-((4-methylthiazol-2-yl)methyl)isophthalamide]	< 300	> 501	> 5000
Cc1csc(CN(C)C(=O)c2cccc(C(=O)NC(Cc3ccccc3)C(O)CNCc3cc(C)on3)c2)n1 (stereo not drawn) [N1-(3-hydroxy-4-((5-methylisoxazol-3-yl)methylamino)-1-phenylbutan-2-yl)-N3-methyl-N3-((4-methylthiazol-2-yl)methyl)isophthalamide]	301 to 500	301 to 500	1000 to 5000
Cc1cncc(CNCC(O)C(Cc2ccccc2)NC(=O)c2cccc(C(=O)N(C)Cc3nc(C)cs3)c2)c1 (stereo not drawn) [N1-(3-hydroxy-4-((5-methylpyridin-3-yl)methylamino)-1-phenylbutan-2-yl)-N3-methyl-N3-((4-methylthiazol-2-yl)methyl)isophthalamide]	< 300	< 300	< 1000
CC(NC(=O)c1cc(C(=O)NC(Cc2ccccc2)C(O)CNC(C)C2CCCCC2)cc(N(C)S(C)(=O)=O)c1)c1ccccc1 (stereo not drawn) [N1-(4-(1-cyclohexylethylamino)-3-hydroxy-1-phenylbutan-2-yl)-5-(N-methylmethylsulfonamido)-N3-(1-phenylethyl)isophthalamide]	< 300	< 300	< 1000
COc1cccc(CNCC(O)C(Cc2ccccc2)NC(=O)c2cc(C(=O)NC(C)c3ccccc3)cc(N(C)S(C)(=O)=O)c2)c1F (stereo not drawn) [N1-(4-(2-fluoro-3-methoxybenzylamino)-3-hydroxy-1-phenylbutan-2-yl)-5-(N-methylmethylsulfonamido)-N3-(1-phenylethyl)isophthalamide]	< 300	< 300	< 1000
